The source of these data is EP0705258B1, “AZOLYL-CYCLIC AMINE DERIVATIVES WITH IMMUNOMODULATORY ACTIVITY” (Knoll AG, priority 1993, dated 1995).

In general, IC50 refers to the concentration that gives 50% inhibition.

The subject of test [1] is tumour necrosis factor-α (TNF-α). As to the kind of experiment: Mouse Tumour Necrosis Factor Test (Test B), mouse endotoxin shock model, serum TNF-α by ELISA. It is filed as in vivo, BALB/c mice. The following applies: Mus musculus; minimum effective oral dose giving significant reduction in serum TNF-α of ≥35%; dosed 2 h before LPS i.p.; ≤ = active at dose given but not tested at lower doses; read-out: MTNF:MED. The text has this: Preferred compounds of the present invention are active in an in-vivo test which determines the ability of the compounds to inhibit the release of tumour necrosis factor-α (TNF-α) in a mouse endotoxin shock model (Test B). This model is similar to that described by Zuckerman and Bendele (1989), Infection and Immunity 57 (10): p3009-3013.
Each compound of formula I was combined with a carrier of a solution of 1.5% v/v sorbitan esters under the trade name Tween 80 and 0.25% v/v cellosize in sterile water (100 µl) and was administered orally to a group of four BALB/c mice. The concentration of compound was such as to provide dosages selected from 100, 30, 10, 3, 1, 0.1 and 0.03 mg/kg. Two hours after such oral administration, lipopolysaccharide (LPS) (E. coli 0127:B8) (100 µg) in sterile water (0.2 ml) was administered intraperitoneally to the test mice.
A control group of eight BALB/c mice was treated in a similar manner as the test group except that no test compound was included with the carrier.
One hour after LPS administration the mice were killed and blood was collected by cardiac puncture. The blood was incubated at 20°C for 2 hours and the serum was separated from the clotted blood following centrifugation. Serum tumour necrosis factor-α (TNF-α) levels were assayed by an enzyme-linked immunosorbent assay (ELISA) and the concentration of TNF-α in each of the drug-treated groups was compared with the control group by one-way analysis of variance followed by a multiple t-test.
The ELISA was carried out by coating a 96-well vinyl assay plate (Costar) overnight at 4°C with 50 µl per well of 2 µg/ml hamster anti-mouse TNF monoclonal antibody in 0.1M sodium hydrogen carbonate buffer at pH 8.2. After washing the plate with phosphate buffered saline (PBS) containing 0.05% v/v sorbitan esters under the trade name Tween 20 (wash buffer), a blocking/dilution buffer (10% sheep serum in PBS containing 0.1% v/v sorbitan esters under the trade name Tween 20 (200 µl)) was aliquoted to each well and incubated at 37°C for 0.5 hours. After aspirating the blocking buffer, the serum samples and pure TNF (as a standard) diluted in blocking/dilution buffer, were added to the wells and incubated at 37°C for 2 hours. After washing with the wash buffer, a polyclonal rabbit anti-mouse TNF-α antibody in blocking/dilution buffer (100 µl of a 1 in 10,000 dilution) was added and incubated for a further 1.5 hours at 37°C. After further washes, anti-rabbit IgG peroxidase conjugate (100 µl of a 1 in 4000 dilution) was added and incubated at 37°C for 0.5 hours. After further washing, the substrate solution (100 µl per well of 0.1 mg/ml 3,3', 5,5'-tetramethylbenzidine dihydrochloride in 0.1M phosphate citrate buffer, pH 5.0, to which 2 µl of 30% hydrogen peroxide per 10 ml was added just before use) was added and the colour allowed to develop. The reaction was stopped by the addition of 1M sulphuric acid (25 µl) and the optical density read in a multichannel spectrophotometer at 450 nm. The mean TNF-α concentration was determined by comparison with the standard curve and the mean TNF-α concentration for each group compared with that produced by the control group. Drug treatments which cause a statistically significant reduction in TNF-α concentration of ≥35% at a single dose at 100 mg/kg or less were considered active.

Test [2] concerns Zymosan Stimulated Macrophages. The test is described as follows: Inhibition of Arachidonic Acid Release from Zymosan Stimulated Macrophages (Test D). Format: cell-based, MF1 mice. The note with it: Mus musculus, Macrophage, tested at 100, 50, 20, 10, 5 and 1 µM. Here is the method: Female MF1 mice (weighing 20 to 25 g) were killed using a rising concentration of CO2. The mice were laid on their backs and the abdomens wiped with 70% alcohol. The skin was pulled back, exposing the peritoneal wall. Medium A (5 ml) (see below) was injected into the peritoneal cavity of each mouse followed by approximately 1 ml of air using a 20 ml syringe and a 21G x 40 mm needle in order to form a suspension of macrophage cells. The medium and cells were then removed using a 19G x 40 mm needle. The resulting suspension was returned to a sterile beaker kept on ice. The extracts from all the mice were pooled and this pooled cell suspension was counted using a Coulter counter and adjusted to a final cell count of 1 - 1.3 x 10^6 cells/ml prior to labelling with [^3H]-arachidonic acid. Typically five mice provided sufficient cells for each multiwell plate. Sufficient [^3H]arachidonic acid in ethanol to give a final concentration of 1.6 µCi/ml (equivalent to 40 µCi/plate) was blown to dryness under nitrogen. The arachidonic acid was then resuspended in 1 or 2 ml of the cell suspension which was then mixed with the remainder of the cell suspension in a centrifuge bottle. The labelled cell suspension was then plated out into sterile plastic 96 flat-bottomed well plates (250 µl per well) and incubated overnight at 37°C in a moist atmosphere of 5% CO2, 95% air. The following day, non-adherent cells were removed by washing 3 times with sterile phosphate buffered saline (PBS). The adherent peritoneal macrophages were then cultured for a further 24 hours in the presence or absence of drugs, in medium B (see below) at 37° in a 5% CO2 atmosphere in order to measure the effects of drugs on the spontaneous release of arachidonic acid in the absence of stimulus. After this incubation, supernatants were removed to give media 1 and stored in sealed multi-well plates at 4°C prior to scintillation counting. Drugs which potentiated spontaneous release of arachidonic acid (125% of controls) were deemed to be toxic at the concentration at which this phenomenon occurred. The supernatants were replaced by fresh medium C containing fresh drug and a stimulus. Three drugs were tested at six concentrations (100, 50, 20, 10, 5 and 1 µM) in replicates of four on each plate. The other wells contained controls consisting of a positive control (e.g. dexamethasone), medium (B) only and medium C only. Incubation was then continued for a further 5 hours, whereupon the supernatants were collected to give media 2 and the adherent cells washed with PBS. The cells were then lysed with 100 µl of 0.1% TRITON® X100 in a 0.1% solution of bovine serum albumin in 0.9% saline and mechanically disrupted to give cell lysates. These supernatants (media 2) and cell lysates (Cells) were also stored in sealed multi-well plates at 4°C prior to scintillation counting. 200 µl aliquots of media, or 100 µl aliquots of cells were counted using 2 ml of OPTIPHASE "HIGH SAFE" (Trademark of LKB) as scintillant. […] The value for the arachidonic acid release in the absence of stimulus (spontaneous, cpm of media 2) from cells which had been exposed to neither stimulus nor drug was subtracted from all equivalent values (cpm media 2, stimulated with or without drug) to give the net stimulated release. The percentage inhibition of arachidonic acid release caused by a drug may then be calculated using the following equation. % Inhibition = 100 -(net stimulated release in presence of drug x 100)/(net stimulated release in absence of drug) [formula] […] The zymosan stimulant was prepared as follows:- zymosan (200mg) (supplied by Sigma) was added to PBS (20ml). The mixture was boiled for 30 minutes and the volume restored to 20ml with water. The zymosan was harvested by centrifugation at 500Xg for 5 minutes, washed twice by resuspension in PBS (10ml) and centrifugation. After the final separation, the zymosan was resuspended in 20ml PBS and stored as lml aliquots at -20°C. […]

A value given as a limit tells only on which side of the number the result lay.

On to `c1ccc(OCCN2CCC(CCn3ccnc3)CC2)cc1` [Example 87, 4-[2-(Imidazol-1-yl)ethyl]-1-(2-phenoxyethyl)piperidine], for which the minimal effective dose in test [1] is at most 100 mg/kg. The IC50 in test [2] came out at 18 µM.

In the case of `C(=Cc1ccccc1)CN1CCC(CCn2ccnc2)CC1` [Example 90, 1-Cinnamyl-4-[2-(imidazol-1-yl)ethyl]-piperidine], the minimal effective dose in test [1] was at most 30 mg/kg. For the same compound, the IC50 in test [2] was 31 µM.

With `O=C(CN1CCC(CCn2ccnc2)CC1)Nc1ccc(C(F)(F)F)cc1` [Example 91, 4-[2-(Imidazol-1-yl)ethyl]piperidino-4'-trifluoromethylacetanilide], in test [1], the minimal effective dose is 30 mg/kg. Also, the IC50 in test [2] turned out to be 17 µM.

As for `CC(c1ccc(Cl)cc1)N1CCC(CCn2ccnc2)CC1` (centres unmarked) [Example 93, 1-[1-(4-chlorophenyl)ethyl]-4-[2-(imidazol-1-yl)-ethyl]piperidine], in test [1], the minimal effective dose was 30 mg/kg. Moreover, the IC50 in test [2] was 56 µM.

With `Cl.Cl.c1ccc(CCCN2CCC(CCn3ccnc3)CC2)cc1` [Example 98, 4-[2-(imidazol-1-yl)ethyl]-1-(3-phenylpropyl)piperidine dihydrochloride], in test [1], the minimal effective dose was found to be 30 mg/kg. In test [2], the IC50 came out at 62 µM.

With `c1ccc(CCCN2CCC(Cn3ccnc3)CC2)cc1` [Example 102, 4-Imidazol-1-ylmethyl-1-(3-phenylpropyl)piperidine], the minimal effective dose in test [1] is at most 100 mg/kg. Also, the IC50 in test [2] is 54 µM.

Take `CC1CN(CCCc2ccccc2)CCC1CCn1ccnc1` (centres unmarked) [Example 103, 4-[2-(Imidazol-1-yl)ethyl]-3-methyl-1-(3-phenylpropyl)piperidine]: the minimal effective dose in test [1] was at most 30 mg/kg. Further, the IC50 in test [2] was 28 µM.

With `c1ccc(CCCN2CCC(CCn3ccnc3-c3ccccc3)CC2)cc1` [Example 109, 4-[2-(2-Phenylimidazol-1-yl)ethyl]-1-(3-phenylpropyl)piperidine], the minimal effective dose in test [1] came to 100 mg/kg. Also, the IC50 in test [2] was 14 µM.

For the compound `Cc1nc2ccccc2n1CCC1CCN(CCCc2ccccc2)CC1` [Example 112, 2-Methyl-1-{2-[1-(3-phenylpropyl)piperidin-4-yl]ethyl}benzimidazole], the minimal effective dose in test [1] worked out at 100 mg/kg. The IC50 in test [2] came out at 16 µM.

For the compound `CC(Cn1ccnc1)C1CCN(CCCc2ccccc2)CC1` (centres unmarked) [Example 113, 4-[2-(Imidazol-1-yl)-1-methylethyl]-1-(3-phenylpropyl)piperidine], in test [1], the minimal effective dose was 10 mg/kg. For the same compound, the IC50 in test [2] was 33 µM.

With `c1ccc(CCCN2CCC(CCn3cnc4ccccc43)CC2)cc1` [Example 114, 1-{2-[1-(3-Phenylpropyl)piperidin-4-yl]-ethyl}benzimidazole], in test [1], the minimal effective dose turned out to be 30 mg/kg. For the same compound, the IC50 in test [2] amounted to 34 µM.

Regarding `Cc1nc(Cl)c(Cl)n1CCC1CCN(CCCc2ccccc2)CC1` [Example 115, 4-[2-(4,5-Dichloro-2-methylimidazol-1-yl)ethyl]-1-(3-phenylpropyl)piperidine], in test [1], the minimal effective dose stood at 100 mg/kg. Also, in test [2], the IC50 came out at 31 µM.

With `Cc1ncn(CCC2CCN(CCCc3ccccc3)CC2)c1C` [Example 116, 4-[2-(4,5-Dimethylimidazol-1-yl)ethyl]-1-(3-phenylpropyl)piperidine], the minimal effective dose in test [1] was 30 mg/kg. The IC50 in test [2] is 18 µM.

Regarding `Cc1nccn1CCC1CCN(CCCc2ccccc2)CC1` [Example 117, 4-[2-(2-Methylimidazol-1-yl)ethyl]-1-(3-phenylpropyl)piperidine], in test [1], the minimal effective dose worked out at 100 mg/kg. The IC50 in test [2] is 21 µM.

`Cc1ccc(CCCN2CCC(CCn3ccnc3)CC2)cc1` [Example 122, 4-[2-(Imidazol-1-yl)ethyl]-1-[3-(4-methylphenyl)propyl]piperidine]: the minimal effective dose in test [1] was at most 30 mg/kg. Moreover, the IC50 in test [2] was 52 µM.

In the case of `Clc1ccc(CCCN2CCC(CCn3ccnc3)CC2)cc1` [Example 123, 1-[3-(4-Chlorophenyl)propyl]-4-[2-(imidazol-1-yl)ethyl]piperidine], the minimal effective dose in test [1] was at most 30 mg/kg. The IC50 in test [2] was 35 µM.

`CSc1ccc(CCCN2CCC(CCn3ccnc3)CC2)cc1` [Example 127, 4-[2-(Imidazol-1-yl)ethyl]-1-[3-(4-methylthiophenyl)propyl]piperidine]: the minimal effective dose in test [1] was determined as 30 mg/kg. For the same compound, the IC50 in test [2] was found to be 16 µM.

For the compound `c1ccc(CCN2CCC(CCn3ccnc3)CC2)cc1` [Example 128, 4-[2-(Imidazol-1-yl)ethyl]-1-phenethylpiperidine], the minimal effective dose in test [1] is at most 30 mg/kg. In addition, the concentration for half-maximal inhibition (IC50) in test [2] was found to be 27 µM.

Regarding `c1ccc(CCCCN2CCC(CCn3ccnc3)CC2)cc1` [Example 129, 4-[2-(Imidazol-1-yl)ethyl]-1-(4-phenylbutyl)piperidine], the minimal effective dose in test [1] was 30 mg/kg. Besides, the IC50 in test [2] is 16 µM.
